Test results as given in patent publication US7462630B2, “Diarylalkene derivatives and novel diarylalkane derivatives” (Ajinomoto Co., Inc., priority 2001, dated 2008).

Key:
N-type calcium channel = molecular target: T1, N-type calcium channel (Homo sapiens, UniProt Q00975); experiment: Antagonistic activity on N-type calcium channel (fluorescence dye method, KCl-stimulated intracellular calcium change in IMR-32 cells with 1 μM Nifedipine); type: cell-based; details: 10 μM test compound, 60 mM KCl stimulation, read-out: Antagonistic activity on N-type calcium channels at 10 μM inhibition rate (%)
T1 construct: host or cells: IMR-32 human neuroblastoma cells, differentiated with dibutyl cAMP and 5-bromodeoxyuridine
Experimental: Human neuroblastoma cells IMR-32 were obtained from ATCC (American Type Culture Collection). The medium used was a Phenol Red-free Eagle minimum essential medium containing earle's salts (GIBCO) supplemented with 2 mM of L-glutamine (GIBCO), 1 mM of sodium pyruvate (pH 6.5) (GIBCO), antibiotic/antimycotic mixture (GIBCO) and 10% fetal calf serum (Cell Culture Technologies). Three ml of 1×10^5 cells/ml IMR-32 cells were spread on the glass bottom of a dish (Iwaki Glsss Co., Ltd.) having a diameter of 35 mm which had been treated with poly-L-lysin (SIGMA) and collagen (COLLAGEN VITROGEN 100; Collagen Co.). After the culture for 1 day, 1 mM (final concentration) of dibutyl cAMP and 2.5 μM (final concentration) of 5-bromodeoxyuridine (SIGMA) were added. After the culture for additional 10 to 14 days, the cells were subjected to the activity determination.
The medium for IMR-32 cells thus prepared was replaced with 1 ml of Phenol Red-free Eale minimum essential medium (GIBCO) containing 2.5 μM fura-2/AM (Dojin Kagaku, Co.) and earle's salts supplement, and the incubation was conducted at 37° C. for 30 minutes. Then the medium was replaced with a recording medium (20 mM of HEPES-KOH, 115 mM of NaCl, 5.4 mM of KCl, 0.8 mM of MgCl2, 1.8 mM of CaCl2 and 13.8 mM of D-glucose). Antagonistic activity on N-type calcium channel was determined and analyzed using a fluorescence microscope (Nikon Corporation) and an image analysis device ARGUS 50 (Hamamatsu Photonics). In particular, a recording medium (20 mM of HEPES-KOH, 115 mM of NaCl, 5.4 mM of KCl, 0.8 mM of MgCl2, 1.8 mM of CaCl2 and 13.8 mM of D-glucose) containing 1 μM of Nifedipine was given to the cells by reflux by a Y-tube method for 2 minutes. Then a stimulating agent containing 60 mM of potassium chloride was rapidly given by the Y-tube method. The calcium concentration change in the cells in this step was shown as the N-type calcium channel activity. Then stimulating agents containing 60 mM of potassium chloride and 0.1, 1 or 10 μM of the test compound were successively and rapidly given to the cells by the Y-tube method to determine the change in the intracellular calcium concentration. The antagonistic activity on N-type calcium channel was calculated from the inhibition rate (%) at a concentration of 10 μM.

L-type calcium channel = molecular target: T2, L-type calcium channel (Rattus norvegicus, UniProt P22002); experiment: Antagonistic activity on L-type calcium channel (relaxation response against KCl-induced contraction of isolated rat thoracic aorta); details: read-out: Antagonistic action on L-type calcium channels pIC50 (converted)
T2 construct: relaxation response against the KCl-induced contraction of isolated rat thoracic aorta was employed; from tissue; host or cells: endothelium-denuded thoracic aorta rings of Wistar rat
Experimental: The antagonistic activity of the new diarylalkene derivatives and diarylalkane derivatives of the present invention to inhibit L-type calcium channel was determined by the following method in which the relaxation response against the KCl-induced contraction of isolated rat thoracic aorta was employed.
The slips of thoracic aorta isolated from a Wistar rat were used. The aorta was cut to obtain ring-shaped samples having a width of about 3 mm. The endothelial cells of the samples were mechanically removed. The samples were suspended in a strain gage in Tyrode's solution (158.3 mM of NaCl, 4.0 mM of KCl, 1.05 mM of MgCl2, 0.42 mM of NaH2PO4, 10 mM of NaHCO3, 2 mM of CaCl2 and 5 mM of glucose) in which a gaseous mixture of O2 (95%) and CO2 (5%) was introduced. A static tension of 2 g was applied thereto. The tension of the blood vessel was amplified with a transducer and a tension amplifier (EF-601G; Nihon Koden Corporation) and recorded with a multi-pen recorder (Rikadenki Kogyo Co., Ltd.). The experiments were conducted at 37° C.
After the tension had been stabilized, the nutrient solution in the sample tank was replaced with High K^+ Tyrode's solution (112.3 mM of NaCl, 50 mM of KCl, 1.05 mM of MgCl2, 0.42 mM of NaH2PO4, 10 mM of NaHCO3, 2 mM of CaCl2 and 5 mM of glucose) to conduct the contraction reaction. Thirty minutes after, the solution in the sample tank was replaced with the normal Tyrode's solution. The solution in the sample tank was again replaced with the High K^+ Tyrode's solution and the contraction reaction was observed. After attaining the maximum contraction reaction, the test compound was cumulatively added at intervals of 90 minutes to attain concentrations of 10^−9, 10^−8, 10^−7 and 10^−6 M. The inhibitory rate of the test compound against the maximum contraction response was employed as the index of the antagonistic activity on L-type calcium channels.
The value of pIC50 indicates the antagonistic activity of the test compound, i. e. the negative logarithm of the concentration of the test compound necessitated for the 50% inhibition.

T2 sequence (P22002 whole entry): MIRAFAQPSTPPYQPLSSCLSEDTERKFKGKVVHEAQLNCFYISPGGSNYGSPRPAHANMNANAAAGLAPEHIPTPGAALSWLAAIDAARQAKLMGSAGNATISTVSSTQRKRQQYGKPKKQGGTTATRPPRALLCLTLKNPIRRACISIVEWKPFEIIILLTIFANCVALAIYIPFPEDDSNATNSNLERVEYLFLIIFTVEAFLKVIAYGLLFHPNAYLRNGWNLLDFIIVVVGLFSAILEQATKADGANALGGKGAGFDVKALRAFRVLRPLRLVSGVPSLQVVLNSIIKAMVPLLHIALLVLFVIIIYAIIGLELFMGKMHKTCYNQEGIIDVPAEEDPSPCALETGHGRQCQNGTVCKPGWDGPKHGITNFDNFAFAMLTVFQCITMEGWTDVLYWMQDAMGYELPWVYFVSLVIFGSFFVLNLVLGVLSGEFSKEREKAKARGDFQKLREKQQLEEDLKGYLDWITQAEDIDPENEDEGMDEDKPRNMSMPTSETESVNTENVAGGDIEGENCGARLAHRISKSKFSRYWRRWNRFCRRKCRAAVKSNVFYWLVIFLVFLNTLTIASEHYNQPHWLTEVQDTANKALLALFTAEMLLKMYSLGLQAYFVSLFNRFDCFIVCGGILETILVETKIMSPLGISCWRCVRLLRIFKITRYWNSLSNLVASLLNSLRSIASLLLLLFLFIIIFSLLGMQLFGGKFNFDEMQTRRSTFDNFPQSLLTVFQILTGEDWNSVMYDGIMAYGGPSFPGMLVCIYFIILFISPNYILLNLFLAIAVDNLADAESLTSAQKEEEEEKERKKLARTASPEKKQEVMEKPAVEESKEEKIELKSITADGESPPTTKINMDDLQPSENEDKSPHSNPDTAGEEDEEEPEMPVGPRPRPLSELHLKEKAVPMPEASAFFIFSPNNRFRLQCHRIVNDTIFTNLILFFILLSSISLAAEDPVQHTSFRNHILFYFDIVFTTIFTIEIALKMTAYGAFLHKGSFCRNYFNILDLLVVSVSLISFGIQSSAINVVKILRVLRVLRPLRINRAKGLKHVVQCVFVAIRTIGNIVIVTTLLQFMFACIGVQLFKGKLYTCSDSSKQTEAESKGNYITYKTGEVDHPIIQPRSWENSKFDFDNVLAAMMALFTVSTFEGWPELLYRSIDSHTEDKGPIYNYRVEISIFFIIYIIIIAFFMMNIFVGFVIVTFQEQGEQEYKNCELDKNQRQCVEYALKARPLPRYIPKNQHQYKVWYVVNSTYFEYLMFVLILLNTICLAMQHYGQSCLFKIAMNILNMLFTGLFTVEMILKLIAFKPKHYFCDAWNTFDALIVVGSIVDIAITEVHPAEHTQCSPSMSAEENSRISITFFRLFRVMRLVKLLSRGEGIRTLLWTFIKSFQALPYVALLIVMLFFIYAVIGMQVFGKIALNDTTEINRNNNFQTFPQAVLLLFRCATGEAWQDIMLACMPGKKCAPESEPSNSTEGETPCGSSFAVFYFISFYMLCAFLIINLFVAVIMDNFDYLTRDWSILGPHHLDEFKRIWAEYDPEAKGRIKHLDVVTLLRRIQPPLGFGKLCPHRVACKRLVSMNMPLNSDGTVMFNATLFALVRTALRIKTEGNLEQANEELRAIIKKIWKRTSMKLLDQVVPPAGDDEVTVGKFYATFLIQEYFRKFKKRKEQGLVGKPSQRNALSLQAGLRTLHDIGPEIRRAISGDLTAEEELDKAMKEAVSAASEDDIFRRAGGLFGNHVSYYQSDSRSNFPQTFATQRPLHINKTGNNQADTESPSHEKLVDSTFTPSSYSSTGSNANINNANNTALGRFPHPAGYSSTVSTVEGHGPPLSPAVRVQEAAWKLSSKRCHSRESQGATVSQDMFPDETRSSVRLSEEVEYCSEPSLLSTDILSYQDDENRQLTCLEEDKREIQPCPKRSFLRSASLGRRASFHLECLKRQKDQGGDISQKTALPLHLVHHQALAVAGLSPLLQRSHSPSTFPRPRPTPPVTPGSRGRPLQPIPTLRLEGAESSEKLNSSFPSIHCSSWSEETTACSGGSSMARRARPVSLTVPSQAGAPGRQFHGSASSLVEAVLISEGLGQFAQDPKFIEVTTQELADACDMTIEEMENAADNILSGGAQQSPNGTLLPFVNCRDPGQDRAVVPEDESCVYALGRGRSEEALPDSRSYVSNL
T2 sequence (P54287 whole entry partner): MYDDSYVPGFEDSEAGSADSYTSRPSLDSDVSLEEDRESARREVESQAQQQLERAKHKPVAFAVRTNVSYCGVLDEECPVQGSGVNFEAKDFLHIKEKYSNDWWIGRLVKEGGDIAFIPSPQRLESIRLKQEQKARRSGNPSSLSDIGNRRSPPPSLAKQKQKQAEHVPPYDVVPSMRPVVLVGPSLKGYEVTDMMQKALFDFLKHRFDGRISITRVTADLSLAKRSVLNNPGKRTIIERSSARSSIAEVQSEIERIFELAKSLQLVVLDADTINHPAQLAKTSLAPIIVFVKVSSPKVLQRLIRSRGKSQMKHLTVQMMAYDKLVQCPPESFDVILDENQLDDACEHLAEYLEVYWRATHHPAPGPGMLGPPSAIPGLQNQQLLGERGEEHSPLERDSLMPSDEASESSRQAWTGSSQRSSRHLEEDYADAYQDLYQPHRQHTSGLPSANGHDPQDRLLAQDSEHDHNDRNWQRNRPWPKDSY
T2 sequence (P54290 25-944 partner limits assumed): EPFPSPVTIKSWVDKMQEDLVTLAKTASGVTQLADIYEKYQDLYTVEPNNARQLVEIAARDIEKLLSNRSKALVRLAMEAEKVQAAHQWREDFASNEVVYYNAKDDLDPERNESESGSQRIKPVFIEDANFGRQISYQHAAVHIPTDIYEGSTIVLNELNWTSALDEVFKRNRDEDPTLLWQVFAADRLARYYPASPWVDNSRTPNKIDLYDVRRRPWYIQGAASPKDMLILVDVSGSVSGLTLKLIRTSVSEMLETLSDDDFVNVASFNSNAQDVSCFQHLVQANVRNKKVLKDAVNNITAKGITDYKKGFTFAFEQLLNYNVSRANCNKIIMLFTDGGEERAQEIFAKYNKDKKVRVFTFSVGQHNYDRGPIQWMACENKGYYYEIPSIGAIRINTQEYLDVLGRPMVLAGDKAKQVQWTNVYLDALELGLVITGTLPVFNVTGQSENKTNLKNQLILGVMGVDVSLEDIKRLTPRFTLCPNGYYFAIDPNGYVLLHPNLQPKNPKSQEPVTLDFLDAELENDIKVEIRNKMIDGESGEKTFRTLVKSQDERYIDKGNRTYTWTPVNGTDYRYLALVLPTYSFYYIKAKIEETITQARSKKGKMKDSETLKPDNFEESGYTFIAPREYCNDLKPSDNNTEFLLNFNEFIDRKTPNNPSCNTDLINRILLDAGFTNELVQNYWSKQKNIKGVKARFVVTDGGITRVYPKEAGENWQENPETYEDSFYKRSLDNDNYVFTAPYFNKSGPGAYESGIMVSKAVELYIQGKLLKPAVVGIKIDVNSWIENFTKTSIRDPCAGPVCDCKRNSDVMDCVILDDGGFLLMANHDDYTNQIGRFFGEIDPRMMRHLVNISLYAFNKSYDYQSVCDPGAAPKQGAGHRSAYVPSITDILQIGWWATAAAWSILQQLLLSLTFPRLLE
T2 sequence (P54290 945-1091 partner limits assumed): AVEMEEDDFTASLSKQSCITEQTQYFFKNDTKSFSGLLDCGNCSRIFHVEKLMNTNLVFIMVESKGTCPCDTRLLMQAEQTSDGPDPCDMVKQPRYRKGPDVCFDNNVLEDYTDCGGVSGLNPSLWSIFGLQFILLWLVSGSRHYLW

Question: `CC(C)(C)C(=O)NCCC(=O)N1CCC(=C2c3ccccc3C=Cc3ccccc32)CC1` [Example 11, N-{3-[4-(5H-dibenzo[a,d][7]annulen-5-ylidene)-1-piperidinyl]-3-oxopropyl}-2,2-dimethylpropanamide] was tested. Which inhibition at 10 µM (N-type calcium channel) did it give?
Answer: 77%

Question: And the IC50 (L-type calcium channel)?
Answer: 0.398 µM

Question: Which inhibition at 10 µM (N-type calcium channel) does the source give for `CC(C)(C)C(=O)N[C@H](CO)CCC(=O)N1CCC(=C2c3ccccc3C=Cc3ccccc32)CC1` [Example 71, (S)-N-[4-[4-(5H-dibenzo[a,d][7]annulen-5-ylidene)-1-piperidinyl]-1-(hydroxylmethyl)-4-oxobutyl]-2.2-dimethylpropanamide] here?
Answer: 74%

Question: What about the IC50 (L-type calcium channel) of the same compound?
Answer: 1.26 µM
